Assay results published in patent US5691373A, “Nonpeptide endothelin antagonists I” (Warner-Lambert Company, priority 1995, dated 1997).
Like-named read-outs stand apart in the source and are kept apart here.

Experiments:
ETA = target: T1, ETA (Oryctolagus cuniculus, UniProt A5A8K3)
T1 sequence (A5A8K3 21-427): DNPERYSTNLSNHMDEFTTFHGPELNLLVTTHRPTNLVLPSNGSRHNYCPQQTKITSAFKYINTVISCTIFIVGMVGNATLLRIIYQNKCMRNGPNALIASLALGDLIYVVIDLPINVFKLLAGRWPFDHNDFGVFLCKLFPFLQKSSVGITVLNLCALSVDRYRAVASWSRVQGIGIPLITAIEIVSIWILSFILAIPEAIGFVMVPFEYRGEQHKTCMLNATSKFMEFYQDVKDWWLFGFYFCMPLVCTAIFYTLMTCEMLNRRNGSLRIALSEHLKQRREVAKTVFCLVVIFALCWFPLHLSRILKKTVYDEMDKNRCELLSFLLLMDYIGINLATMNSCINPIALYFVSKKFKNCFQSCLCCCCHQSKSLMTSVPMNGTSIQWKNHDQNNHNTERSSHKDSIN

human ETB receptor = target: T2, human ETB receptor (Homo sapiens, UniProt P24530); assay: ERBA-B: [125I]-ET-1 binding, recombinant human ETB receptor expressed in CHO-K1 cells; details: human cloned ETB receptor, read-out: ERBA-B IC50, human cloned receptor data
T2 construct: expressed in transfected cells; host or cells: CHO-K1 cells, pRc-CMW (so in the source) expression vector, electroporation; membranes used
T2 sequence (P24530 27-442): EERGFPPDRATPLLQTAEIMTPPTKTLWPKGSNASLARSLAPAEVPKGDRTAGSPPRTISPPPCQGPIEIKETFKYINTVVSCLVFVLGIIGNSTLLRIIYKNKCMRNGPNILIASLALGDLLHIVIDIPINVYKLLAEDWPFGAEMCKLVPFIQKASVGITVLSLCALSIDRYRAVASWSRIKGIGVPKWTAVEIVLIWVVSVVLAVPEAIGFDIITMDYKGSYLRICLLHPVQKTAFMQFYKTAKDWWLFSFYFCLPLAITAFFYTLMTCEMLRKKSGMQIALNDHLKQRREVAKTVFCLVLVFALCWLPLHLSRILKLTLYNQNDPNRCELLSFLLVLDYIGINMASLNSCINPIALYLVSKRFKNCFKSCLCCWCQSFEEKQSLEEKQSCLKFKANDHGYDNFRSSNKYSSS
Description: Count filters for radioactivity in gamma counter.
The above process has also been modified by using human recombinant CHO-K1 cells.
The tissue used for human ETB was recombinant human ETB receptor expressed in CHO-K1 cells (chinese hamster ovary cells). The gene for human ETB receptor was cloned and inserted into the pRc-CMW expression vector, then transfected into CHO-K1 cells by electroporation. For binding assays, membranes (0.7 mg protein) of CHO-K1 cells expressing recombinant human ETB receptor were used.
^d Human cloned receptor data

[1] = ERBA-A IC50, [125I]-ET-1, rabbit renal artery vascular smooth muscle cells
[2] = read-out: ERBA-A IC50, [125I]-ET-1, rabbit renal artery vascular smooth muscle cells

SMILES | IC50 (ETA; [1]) [nM] | IC50 (human ETB receptor) [nM] | IC50 (ETA; [2]) [nM]
COc1ccc(C2(O)OC(=O)C(c3cc(OC)cc(OC)c3)=C2Cc2cccc(F)c2)cc1 (stereo not drawn) [Example 129, 3-(3,5-Dimethoxphenyl)-4-(3-fluorobenzyl)-5-hydroxy-5-(4-methoxyphenyl)-5H-furan-2-one] | 72 | 2300 | 
COc1ccc(C2(O)OC(=O)C(c3cc(OC)cc(OC)c3)=C2Cc2cc(Cl)cc(Cl)c2)cc1 (stereo not drawn) [Example 132, 4-(3,5-Dichlorobenzyl)-3-(3,5-dimethoxyphenyl)-5-hydroxy-5-(4-methoxyphenyl)-5H-furan-2-one] | 70 | 2750 | 
COc1ccc(C2(O)OC(=O)C(c3ccc4c(c3)OCO4)=C2Cc2cncc3ccccc23)cc1 (stereo not drawn) [Example 161, 3-Benzo[1,3]dioxol-5-yl-5-hydroxy-4-isoquinolin-4-ylmethyl-5-(4-methoxyphenyl)-5H-furan-2-one] | 40 | 3200 | 
COc1ccc(C2(O)OC(=O)C(c3ccc4c(c3)OCO4)=C2Cc2ccc(-c3ccccc3)cc2)cc1 (stereo not drawn) [Example 162, 3-Benzo[1,3]dioxol-5-yl-4-biphenyl-4-ylmethyl-5-hydroxy-5-(4-methoxyphenyl) -5H-furan-2-one] | 390 | 1900 | 
COc1ccc(C(=O)/C(Cc2ccc(OC)c(C)c2)=C(\C(=O)O)c2ccc3c(c2)OCO3)cc1 [Example 172, 2-Butenoic acid, 2-(1,3-benzodioxol-5-yl)-3-[(4-methoxy-3-methylphenyl)methyl]-4-(4-methoxyphenyl)-4-oxo-, (Z)-, ion(1-) compd. with 2-hydroxy-N,N,N-trimethylethanaminium (1:1)] |  | > 2500 | 7200
CC(C)Oc1ccc(C2(O)OC(=O)C(c3ccc4c(c3)OCO4)=C2Cc2ccccc2)cc1 (stereo not drawn) [Example 204, 3-Benzo[1,3]dioxol-5-yl-4-benzyl-5-hydroxy-5-(4-isopropoxyphenyl)-5H-furan-2-one] | 1050 | 10000 | 
O=C1OC(O)(c2ccc(OCc3ccccc3)cc2)C(Cc2ccccc2)=C1c1ccc2c(c1)OCO2 (stereo not drawn) [Example 208, 3-Benzo[1,3]dioxol-5-yl-4-benzyl-5-(4-benzyloxyphenyl)-5-hydroxy-5H-furan-2-one] | 1200 | 5400 | 
O=C1OC(O)(c2cccc(Cl)c2)C(Cc2ccccc2)=C1c1ccc2c(c1)OCO2 (stereo not drawn) [Example 235, 3-Benzo[1,3]dioxol-5-yl-4-benzyl-5-(3-chlorophenyl)-5-hydroxy-5H-furan-2-one] | 670 | > 2500 | 
O=C1OC(O)(c2ccc3c(c2)OCO3)C(Cc2ccccc2)=C1c1ccc2c(c1)OCO2 (stereo not drawn) [Example 245, 3,5-Bis-benzo[1,3]dioxol-5-yl-4-benzyl-5-hydroxy-5H-furan-2-one] | 110 | 2000 | 
COc1ccc(C2(O)OC(=O)C(c3ccc(OC)c(OC)c3)=C2Cc2ccccc2)cc1 (stereo not drawn) [Example 261, 4-Benzyl-3-(3,4-dimethoxyphenyl)-5-hydroxy-5-(4-methoxyphenyl)-5H-furan-2-one] | 160 | 3900 | 
COc1ccc(C2(O)OC(=O)C(c3cc(OC)cc(OC)c3)=C2Cc2cccc(C(=O)O)c2)cc1 (stereo not drawn) [Example 267, 3-[4-(3,5-Dimethoxyphenyl)-2-hydroxy-2-(4-methoxyphenyl)-5-oxo-2,5-dihydrof uran-3-ylmethyl]benzoic acid] | 710 | > 2500 | 
COc1ccc(C2(O)OC(=O)C(c3cc(OC)cc(OC)c3)=C2Cc2ccc(OC)c(C)c2)cc1 (stereo not drawn) [Example 272] | 6.4 | 760 | 
COc1ccc(C2(O)OC(=O)C(c3cc(OC)cc(OC)c3)=C2Cc2ccc(Cl)cc2)cc1 (stereo not drawn) [Example 274] |  | > 2500 | 140

Other lines, results leading:

IC50 (ETA; [1]) [nM] | IC50 (human ETB receptor) [nM] | IC50 (ETA; [2]) [nM] | SMILES
6 | > 2500 |  | COc1ccc(C2(O)OC(=O)C(c3ccc4c(c3)OCO4)=C2Cc2cc(C)c(OC)cc2C)cc1 (stereo not drawn) [Example 251, 3-Benzo[1,3]dioxol-5-yl-5-hydroxy-4-(4-methoxy-2,5-dimethylbenzyl)-5-(4-methoxyphenyl)-5H-furan-2-one]
8.3 | 1400 |  | C=CCOc1cc(CC2=C(c3ccc4c(c3)OCO4)C(=O)OC2(O)c2ccc(OC)cc2OC)ccc1OC (stereo not drawn) [Example 255, 4-(3-Allyloxy-4-methoxybenzyl)-3-benzo[1,3]dioxol-5-yl-5-(2,4-dimethoxyphenyl)-5-hydroxy-5H-furan-2-one]
4.6 | 6000 |  | COC(=O)c1cccc(CC2=C(c3ccc4c(c3)OCO4)C(=O)OC2(O)c2ccc(OC)cc2)c1 (stereo not drawn) [Example 286, Benzoic acid, 3-[[4-(1,3-benzodioxol-5-yl)-2,5-dihydro-2-hydroxy-2-(4-methoxyphenyl)-5-oxo-3-furanyl]methyl]-, methyl ester]
40 | 1400 |  | COC(=O)Cc1ccc(CC2=C(c3ccc4c(c3)OCO4)C(=O)OC2(O)c2ccc(OC)cc2)cc1 (stereo not drawn) [Example 291, {4-[4-Benzo[1,3]dioxol-5-yl-2-hydroxy-2-(4-methoxyphenyl)-5-oxo-2,5-dihydro-furan-3-ylmethyl]-phenyl}-acetic acid methyl ester]
> 2500 | > 2500 |  | COc1ccc(C2(O)OC(=O)C(c3ccc4c(c3)OCO4)=C2Cc2ccc(CC(=O)O)cc2)cc1 (stereo not drawn) [Example 293, {4-[4-Benzo[1,3]dioxol-5-yl-2-hydroxyl-2-(4-methoxy-phenyl)-5-oxo-2,5-dihydro-furan-3-ylmethyl]-phenyl}-acetic acid]
3.4 | 780 |  | COC(=O)Cc1cccc(CC2=C(c3ccc4c(c3)OCO4)C(=O)OC2(O)c2ccc(OC)cc2)c1 (stereo not drawn) [Example 294, {3-[4-Benzo[1,3]dioxol-5-yl-2-hydroxy-2-(4-methoxyphenyl)-5-oxo-2,5-dihydro-furan-3-ylmethyl]-phenyl}-acetic acid methyl ester]
130 | > 2500 |  | COc1ccc(C2(O)OC(=O)C(c3ccc4c(c3)OCO4)=C2Cc2cccc(CC(=O)O)c2)cc1 (stereo not drawn) [Example 295, {3-[4-Benzo[1,3]dioxol-5-yl-2-hydroxy-2-(4-methoxyphenyl)-5-oxo-2,5-dihydro-furan-3-ylmethyl]-phenyl}-acetic acid]
6 | 580 |  | COc1ccc(C2(O)OC(=O)C(c3ccc4c(c3)OCO4)=C2Cc2cc(C)c(OC)c(C)c2)cc1 (stereo not drawn) [Example 296, 3-Benzo[1,3]dioxol-5-yl-5-hydroxy-4-(4-methoxy-3,5-dimethyl-benzyl)-5-(4-methoxy-phenyl)-5-H-furan-2-one]
64 | 870 |  | COc1ccc(C2(O)OC(=O)C(c3ccc4c(c3)OCO4)=C2Cc2cc(C)c(OC(C)C)c(C)c2)cc1 (stereo not drawn) [Example 297, 3-Benzo[1,3]dioxol-5-yl-4-(3,5-dimethyl-4-isopropoxybenzyl)-5-hydroxy-5-(4-methoxy-phenyl)-5H-furan-2-one]
2300 | 2000 |  | CCCCCCCCOc1c(C)cc(CC2=C(c3ccc4c(c3)OCO4)C(=O)OC2(O)c2ccc(OC)cc2)cc1C (stereo not drawn) [Example 302, 3-Benzo[1,3]dioxol-5-yl-4-(3,5-dimethyl-4-octyloxybenzyl)-5-hydroxy-5-(4-methoxy-phenyl)-5H-furan-2-one]
2.7 | 760 |  | COc1ccc(C2(O)OC(=O)C(c3ccc4c(c3)OCO4)=C2Cc2cc(OC)cc(OC)c2)cc1 (stereo not drawn) [Example 303, 3-Benzo[1,3]dioxol-5-yl-4-(3,5-dimethoxy-benzyl)-5-hydroxy-5-(4-methoxy-phenyl)-5H-furan-2-one]
4.8 | 950 |  | COc1ccc(C2(O)OC(=O)C(c3ccc4c(c3)OCO4)=C2Cc2ccc(OC)c(OC)c2)cc1 (stereo not drawn) [Example 304, 3-Benzo[1,3]dioxol-5-yl-4-(3,4-dimethoxy-benzyl)-5-hydroxy-5-(4-methoxy-phenyl)-5H-furan-2-one]
2 | 850 |  | COc1ccc(C2(O)OC(=O)C(c3ccc4c(c3)OCO4)=C2Cc2cc(OC)c(OC)cc2OC)cc1 (stereo not drawn) [Example 306, 3Benzo[1,3]dioxol-5-yl-5-hydroxy-5-(4-methoxy-phenyl)-4-(2,4,5-trimethoxy-benzyl)-5H-furan-2-one]
5.9 | 1000 |  | COc1ccc(C2(O)OC(=O)C(c3ccc4c(c3)OCO4)=C2Cc2cc(OC)ccc2OC)cc1 (stereo not drawn) [Example 307, 3-Benzo[1,3]dioxol-5-yl-4-(2,5-dimethoxy-benzyl)-5-hydroxy-5-(4-methoxy-phenyl)-5H-furan-2-one]
